Data taken from patent US20080027104A1, “Novel Crystalline Forms 2” (AstraZeneca AB, priority 2006, published 2008).

Key:
Type in all cases: physicochemical
[1] = Thermodynamic stability of crystal form; conditions: crystallised from THF/ethanol
[2] = Thermogravimetric analysis of crystalline form; conditions: range from 25° C. up to 205° C.
Procedure: (§1) The crystalline forms may be further characterised by the presence of one or more of the additional properties listed below: • (i) for Form I • (I) when characterised by thermogravimetric analysis, a weight loss of approx. 0.8% occurs in the range from 25° C. up to 205° C., and/or • (II) when characterised by differential scanning calorimetry, at a heating rate of 10° C. per minute in a closed cup with a pinhole under flowing nitrogen, a melting temperature (Tm) having an onset at about 194° C. and/or an associated endotherm of melting of about 96 J/g; and/or • (III) when stored at 80% RH (ambient) less than 0.2% moisture is adsorbed. • (i) for Form II • (I) when characterised by thermogravimetric analysis, a weight loss of approx. 0.2% occurs in the range from 25° C. up to 205° C., and/or • (II) when characterised by differential scanning calorimetry, at a heating rate of 10° C. per minute in a closed cup with a pinhole under flowing nitrogen, a melting temperature (Tm) having an onset at about 193° C. and/or an associated endotherm of melting of about 105 J/g.

[3] = Moisture adsorption on storage at 80% RH; conditions: stored at 80% RH (ambient)
Procedure: as §1

Row | Compound | thermodynamic stability of crystal form [1] | weight loss by thermogravimetric analysis [2] | moisture adsorbed [3]
1 | CCOC(=O)c1cc(C#N)c(N2CCC(C(=O)NS(=O)(=O)Cc3ccccc3)CC2)nc1C [Form II, 6-(4-{[(benzylsulfonyl)amino]carbonyl}piperidin-1-yl)-5-cyano-2-methylnicotinic acid ethyl ester] | thermodynamically stable form | approx. 0.2% | 
2 | CCOC(=O)c1cc(C#N)c(N2CCC(C(=O)NS(=O)(=O)Cc3ccccc3)CC2)nc1C [Form I, 6-(4-{[(benzylsulfonyl)amino]carbonyl}piperidin-1-yl)-5-cyano-2-methylnicotinic acid ethyl ester] |  | approx. 0.8% | less than 0.2%
